The values that follow come from ChEMBL document CHEMBL1124673, “A multisubstrate adduct inhibitor of a purine biosynthetic enzyme with a picomolar dissociation constant” (J Med Chem, 1989).

Assay [1] concerns the target T1, Trifunctional purine biosynthetic protein adenosine-3 (Mus musculus, UniProt Q64737).
T1 sequence (Q64737 whole entry): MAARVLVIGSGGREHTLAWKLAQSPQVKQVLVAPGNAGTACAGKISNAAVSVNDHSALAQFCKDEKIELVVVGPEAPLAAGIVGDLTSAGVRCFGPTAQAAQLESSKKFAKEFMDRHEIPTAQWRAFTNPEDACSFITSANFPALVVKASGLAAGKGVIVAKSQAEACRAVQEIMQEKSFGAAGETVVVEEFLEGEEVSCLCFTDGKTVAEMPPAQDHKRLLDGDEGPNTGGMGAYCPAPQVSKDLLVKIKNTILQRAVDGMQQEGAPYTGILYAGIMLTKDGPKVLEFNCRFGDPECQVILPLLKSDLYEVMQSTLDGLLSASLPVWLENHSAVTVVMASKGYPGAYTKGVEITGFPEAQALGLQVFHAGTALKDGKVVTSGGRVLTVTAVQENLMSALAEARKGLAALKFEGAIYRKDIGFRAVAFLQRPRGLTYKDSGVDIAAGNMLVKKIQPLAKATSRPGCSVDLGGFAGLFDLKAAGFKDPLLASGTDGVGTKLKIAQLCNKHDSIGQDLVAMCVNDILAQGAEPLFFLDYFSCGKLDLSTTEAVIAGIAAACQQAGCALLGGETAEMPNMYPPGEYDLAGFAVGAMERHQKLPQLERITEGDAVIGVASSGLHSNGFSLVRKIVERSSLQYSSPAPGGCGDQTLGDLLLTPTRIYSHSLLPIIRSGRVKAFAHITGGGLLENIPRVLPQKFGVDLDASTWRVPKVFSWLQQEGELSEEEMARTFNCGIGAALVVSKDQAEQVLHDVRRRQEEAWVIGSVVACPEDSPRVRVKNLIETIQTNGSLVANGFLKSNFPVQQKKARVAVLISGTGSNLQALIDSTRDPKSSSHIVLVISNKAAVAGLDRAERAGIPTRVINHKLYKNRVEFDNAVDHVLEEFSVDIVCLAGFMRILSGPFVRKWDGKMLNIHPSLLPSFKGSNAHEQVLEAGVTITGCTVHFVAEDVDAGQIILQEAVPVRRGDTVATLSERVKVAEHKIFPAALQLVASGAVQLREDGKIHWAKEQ
The experiment in a line: Compound was tested for inhibition constant against GAR TFase in mice.

Assay [2] has as its target T1, Trifunctional purine biosynthetic protein adenosine-3. The experiment in a line: Thermodynamic dissociation constant (KD) was measured upon binding to GAR TFase in mice.

The term Ki denotes the dissociation constant of the complex between target and ligand, obtained from inhibition or displacement. High values mean a looser hold on the target, low ones a stronger hold on the target. As usually defined, the Kd is a measure of binding affinity in units of concentration. High values mean weaker binding, low ones tighter binding.

For `Nc1nc2ccc(CN(C(=O)CSCC(=O)NC3O[C@H](COP(=O)(O)O)[C@@H](O)[C@H]3O)c3ccc(C(=O)N[C@H](CCC(=O)O)C(=O)O)cc3)cc2c(=O)[nH]1` (some centres not stated), the inhibitory constant (Ki) in assay [1] was above 100 nM. Moreover, the Kd in assay [2] turned out to be 0.25 nM.
